# Test results: US20100119595A1, “Monounsaturated fatty acids and perhydrocyclopentanophenanthrene nucleus combination molecules, and their precursors, and the use of all of these as weight-loss agents” (priority 2001, published 2010)
# Marks after values point to notes of the source that are not given here.
# Columns and labels:
# [1] = Dog weight-loss study, estrone eicosenoate vs oleoyl-estrone (Example 2); format: in vivo; details: oral 21 days, 5, 3.33 or 2.5 micromoles/kg vs OE 10 micromoles/kg
# From the text: Dogs are selected and initial measurements taken. The initial measurements include weight and electrical impedance for each dog as measured by a standard impedance measuring device with electrodes placed between the front and rear paws. The dogs are placed individually in appropriate cages and allowed an ad libitum diet of standard dog chow and water for a 10-day period. Daily measurements include the following: • 1. Weight • 2. Weight of food consumed • 3. Water consumed, both volume and weight Every other day, the dogs' electrical impedance is measured as an indicator of fat tissue content and loss. The dogs remain confined with out of cage activity or exercise for the duration of the experiment. This initial 10-day period establishes a pattern and average of weight gain, impedance change, and food and water consumption for each dog. […] This assures the dogs will readily accept the bread ball as a drug delivery device. […] An appropriate volume of either OE or EE is placed into the center of a thick piece of dense sweet bread (non-porous), carefully rolled into a small ball so none of the to compound leaks out, and sprinkled on the outer surface with sugar or syrup as determined above. […] Electrical impedance of each dog is measured every other day.
# [2] = Human study of estrone eicosenoate as anti-obesity drug (Example 3); format: in vivo; details: humans, oral capsule every morning, 0.75 or 0.375 micromoles/kg
# Description: • 1) The required number of subjects are properly screened to fulfill the necessary qualifications, • 2) appropriate laboratory evaluation are performed, • 3) various aspects of positive drug response in a manner acceptable for drug approval are recorded, • 4) adverse drug effects are documented, and • 5) patients are adequately followed-up.
# In this random, double-blind, placebo controlled study, subjects are selected to one of three groups and take a capsule orally every morning containing one of the following: a) sunflower oil (placebo), b) estrone eicosenoate dissolved in sunflower oil at a dose of 0.75 micromoles/kg, or c) estrone eicosenoate dissolved in sunflower oil at a dose of to 0.375 micromoles/kg.
# Subjects report weekly for measurements and assessment of any side effects. […]
# Different tests are performed at least five different times during each study, namely at the screening of potential participants, at the beginning of the study, weekly during the trials, at the end of the first 4 week period and at the end of the second 4 week treatment period. • 1) SCREENING: Subjects are screened to exclude hypothyroidism, pregnancy, and heart disease. […] Subjects selected to participate in the studies have the following initial measurements: WEIGHT, WAIST to HIP RATIO, HEIGHT, BMI (calculated), BODY FAT % & TOTAL BODY FAT (via bioelectrical impedance method). […]
# [3] = Rabbit 10-day oral study: body weight and food consumed (Example 1); details: for FINAL WT.: one rabbit; for WT. Δ w/ Rx 10 days: control +0.14
# Description: During the first 3 weeks, rabbits were only weighed and allowed to eat. On the fourth week, all rabbits were given 0.05 cc dose of peanut oil.
# Five New Zealand white rabbits were obtained and caged in their natural environment (outside) and fed a cafeteria, ad libitum diet of rabbit chow. […] The appropriate weights of OE or EE were diluted in peanut oil to provide concentrations as follows: 1) OE, 2 mg/0.05 cc; 2) EE, 1 mg/0.05 cc; 3) 0.33 mg/0.05 cc; 4) EE, 0.1mg/0.05 cc, 5) EE, 0.03 mg/0.05 cc
# For the initial three weeks, the rabbits were given no medicine or oil. Body weight and food consumed were measured daily; establishing a daily average for food consumed and weight change.
# Rabbits received the assigned dose for 10 consecutive days. Rabbit weight (kg) and food eaten (grams) were determined daily.
# [4] = EE 1 mg/d vs OE 2 mg/d, oral, rabbits
structure (smiles),measurement,setting,value
"CCCCCCCC/C=C\CCCCCCCCCC(=O)Oc1ccc2c(c1)CC[C@@H]1[C@@H]2CC[C@]2(C)C(=O)CC[C@@H]12 [EE, estrone eicosenoate]",weight loss compared with dogs receiving oleoyl-estrone,[1],greater weight loss
same,appetite,[2],reduces appetite
same,"weight loss, loss of body fat, and/or decrease of body fat%",[2],produces weight loss
same,FINAL WT.,"[3]; EE 0.03 mg/d oral in peanut oil, 10 days, initial wt 4.00 kg",4.17* kg
same,WT. Δ w/ Rx 10 days,"[3]; EE 0.03 mg/d oral, 10 days, pre-Rx 10 day avg. +0.125",+0.17 kg
same,FOOD/DAY AVG. w/ Rx,"[3]; EE 0.03 mg/d oral, 10 days, pre-Rx avg 163.6",158.5 grams
same,FINAL WT.,"[3]; EE 0.2 mg/d oral in peanut oil, 10 days, initial wt 3.50 kg",3.56 kg
same,FOOD/DAY AVG. w/ Rx,"[3]; EE 0.2 mg/d oral, 10 days, pre-Rx avg 151.1",131.0 grams
same,FINAL WT.,"[3]; EE 0.33 mg/d oral in peanut oil, 10 days, initial wt 4.09 kg",4.01 kg
same,WT. Δ w/ Rx 10 days,"[3]; EE 0.33 mg/d oral, 10 days, pre-Rx 10 day avg. +0.139",−0.08 kg
same,FOOD/DAY AVG. w/ Rx,"[3]; EE 0.33 mg/d oral, 10 days, pre-Rx avg 151.6",150.4 grams
same,FINAL WT.,"[3]; EE 1 mg/d oral in peanut oil, 10 days, initial wt 3.73 kg",3.37 kg
same,WT. Δ w/ Rx 10 days,"[3]; EE 1 mg/d oral, 10 days, pre-Rx 10 day avg. +0.129",−0.36 kg
same,FOOD/DAY AVG. w/ Rx,"[3]; EE 1 mg/d oral, 10 days, pre-Rx avg 138.3",31.9 grams
same,amount of food eaten relative to the OE rabbit,[3]; [4],approximately ⅓
same,weight loss relative to OE over a 10-day period,[3]; [4],more than three times the weight loss
same,weight gained compared with the Control rabbit,"[3]; EE at 1/10 the dose of OE (0.2 mg/d), 10 days",less than half the weight gained by the Control rabbit
same,weight gained compared with the control,"[3]; EE at lowest dose (0.03 mg/d), 10 days",gained more weight than even the control
same,weight loss less than that resulting from OE,"[3]; EE at ⅙ the dose of OE (0.33 mg/d vs 2 mg/d), 10 days",20%
